Measurements published in patent US11357873B2, “Chiral cyclen compounds and their uses” (THE HONG KONG POLYTECHNIC UNIVERSITY, priority 2016, dated 2022).
Where two headings read alike, the source gives them in different places. Blank lines part the entries; values can stand above or below the compound they belong to.

Columns and labels:
[1] = Relaxivity (r1, r2) measurement of Gd(III) complexes in water, BSA and human plasma; format: physicochemical; design: r1 Human Plasma (1.5 T): unit not given beside the values; conditions: 1.5 T, 37° C.
Protocol: This is very important because the huge difference in the inner-sphere coordinated water exchange rate between the two isomers is a key factor for applications, for example, as MRI contrast agents. To show their potential value, the two diastereomers of [GdL2]^− ([GdL2A]^− and [GdL2B]^−) were separated and their relaxivities were measured. The relaxivities of [GdL1]^−, [GdL2]^−, [GdL2A]^−, [GdL2B]^− and [GdDOTA]^− in water at different magnetic strengths (1.5 T and 11.7 T) were compared, with or without the presence of BSA and human plasma (1.5 T) (Table 1). It is clearly seen that the complexes of [GdL1]^−, [GdL2A]^− and [GdL2B]^− have relaxivity properties similar to that of the [GdDOTA]^− complex.

[2] = amine bond, 12-membered ring
[3] = TSA/SA isomer ratio of lanthanide complexes by 1H NMR; format: physicochemical; conditions: 25° C., 400 MHz, pD 7.0, aqueous solution
Text: (§1) In aqueous solution, the ratio of TSA/SA isomers of Eu(III) and Yb(III) complexes in DOTA-like systems can be easily determined by ^1H NMR as two well-defined sets of six resonances are observed for the diastereotopic protons in CH2CO and NCH2CH2N.^13 Although the Gd(III) complexes cannot be analyzed by NMR, their ratio of isomers are expected to be similar to those of the Eu(III) and Yb(III) complexes because the ionic radius of Gd(III) is similar to the ionic radius of Eu(III) and Yb(III).
(§2) The conformational properties of the lanthanide complexes were investigated by both HPLC and NMR spectroscopy. The ^1H NMR spectra of the four europium chiral DOTA-based complexes are compared in FIG. 3. […] In the cases of [EuL3]^− and [EuL4]^−, the twisted antiprismatic isomers were more dominant, with the ratio of 6.52 for [EuL3]^− and 13.50 for [EuL4]^− observed.
The ratio of TSA/SA isomers for [YbL1]^− (0.28) and [YbL2]^− (0.93) was relatively lower than that of the europium analogues. The ratio change from [YbL2]^− to [YbL3]^− was also not as apparent.

[4] = Stability of isomers on heating and storage by 1H NMR; format: physicochemical; conditions: solution of [EuL2A]− and [EuL2B]− at 1:0.25, 90° C. for 3 days
Text: as §1, §2
The stability of the complexes toward racemization over time was also monitored by ^1H NMR (FIG. 20). […] Nevertheless, the original set of peaks existed predominately when the pD was adjusted from 6.0 to 7.5 and further heated for 12 h at 90° C. It can be observed that while the purity of the ligands may not be highly satisfactory, pure complexes could be obtained by HPLC separation after complexation. This phenomenon indicates the purification of DOTA-based ligands should be handled with care.

[5] = Circularly polarized luminescence (CPL), dissymmetry factor glum; format: physicochemical; conditions: wavelength in parentheses in the cell, listed as 12b
Protocol: (§3) Steady-state room temperature photoluminescence measurements were performed with an Edinburgh Instrument FLSP920 spectrophotometer equipped with a Xe900 continuous xenon lamp, μF920 microsecond flash lamp and a single photon counting photomultiplier tube. Spectra were corrected with the bundled F900 software. Solution-state measurements were conducted using quartz curettes of 10 mm path length. CPL measurements were conducted on a custom built spectrometer^63 (in Durham University) consisting of a laser driven light source (Energetiq EQ-99 LDLS, spectral range 170 to 2100 nm) coupled to an Acton SP2150 monochromator (600 g/nm, 300 nm Blaze) that allows excitation wavelengths to be selected with a 6 nm FWHM band-pass. The collection of the emitted light was facilitated (90° angle set up, 1 cm path length quartz curette) by a Lock-In Amplifier (Hinds Instruments Signaloc 2100) and Photoelastic Modulator (Hinds Instruments PEM-90). The differentiated light was focused onto an Acton SP2150 monochromator (1200 g/nm, 500 nm Blaze) equipped with a high sensitivity cooled Photo Multiplier Tube (H10723-20 Extended red-multialkali PMT based photosensor (5V)). Spectra were recorded using a 5 spectral average sequence in the range of 570-720 nm with 0.5 nm spectral intervals and 500 μs integration time.

[6] = Absorption and photoluminescence (quantum yield, lifetime, q); format: physicochemical; design: λabs(max): unit not given here; conditions: listed as 12b
Protocol: as §3, with “Absorption spectra of complexes were measured with HP UV-8453 spectrophotometer. Steady-state” for “Steady-state”, “time. The recorded CPL spectrum underwent a 25% Fourier transformation smoothening protocol using Origin 8.0 Software (Origin Labs) to enhance appearance (all calculations were carried out using raw spectral data).” for “time.”
The shift in absorption is caused by electronic communication between the electropositive lanthanide center and the chromophore. […] These are not observed for 11, however, as we believe the steric effect of the planar phenyl ring of the benzyl group could not be alleviated by appropriate rotation, whereas that of the isobutyl group could.
The luminescence quantum yields of the complexes are decent in water and HEPES solution, although they are much higher in DMSO, due to the nonradiative quenching by O—H oscillators of water molecules in the second coordination sphere (Table 6). The intrinsic quantum yields^61—a calculated value evaluating the quantum yield of Eu(III) via direct metal excitation—of the complexes are calculated, and, as expected, the values are very similar, except for 10. The higher value corroborates with the shift in absorption maximum, for which we believe the reason is due to a shorter europium—chromophore distance and better interaction. On the other hand, the sensitization efficiencies of the complexes vary. […] The relatively remarkable ηsens of 13 is attributed to its structural rigidity, as both the tetraaza backbone and the acetate arms are modified with a chrial substituent, i.e., double chirality. The double chirality is also attributed for the increase in luminescence quantum yield compared to that of 12a/12b.

SMILES: O=C([O-])CN1CCN(CC(=O)[O-])CCN(CC(=O)[O-])CCN(CC(=O)[O-])CC1.[Gd+3] [[GdDOTA]^−, reference compound]
- r1 4.5 w/v BSA (1.5 T) [1]: 4.1
- r1 Human Plasma (1.5 T) [1]: 4.0
- r1 Water (1.5 T) [1]: 3.2

SMILES: O=[N+]([O-])c1ccc(C[C@H]2CN(Cc3ccccc3)[C@@H](Cc3ccc([N+](=O)[O-])cc3)CN(Cc3ccccc3)[C@@H](Cc3ccc([N+](=O)[O-])cc3)CN(Cc3ccccc3)[C@@H](Cc3ccc([N+](=O)[O-])cc3)CN2Cc2ccccc2)cc1
- ring closure, isolated yield ([2]; from O=[N+]([O-])c1ccc(CC2C[N@@]2Cc2ccccc2)cc1, TsOH.H2O, MeCN, 84.7 mM, 25.0 °C): 20.6%

- isomer ratio of TSA/SA [3]: essentially one TSA isomer
SMILES: O=C([O-])CN1CC(Cc2ccccc2)N(CC(=O)[O-])CC(Cc2ccccc2)N(CC(=O)[O-])CC(Cc2ccccc2)N(CC(=O)[O-])CC1Cc1ccccc1.[Yb+3] (stereo not shown) [[YbL4]^−]

- isomer ratio after heating (lack of racemization) [4]: remained at the same ratio
SMILES: CC[C@H]1CN(CC(=O)[O-])[C@@H](CC)CN(CC(=O)[O-])[C@@H](CC)CN(CC(=O)[O-])[C@@H](CC)CN1CC(=O)[O-].[Eu+3] (single isomer, unassigned) [[EuL2B]^−]

SMILES: CC[C@H]1CN(Cc2ccccc2)[C@@H](CC)CN(Cc2ccccc2)[C@@H](CC)CN(Cc2ccccc2)[C@@H](CC)CN1Cc1ccccc1
- ring closure, isolated yield [2]: 27.5%

- isomer ratio of TSA/SA [3]: 13.50
SMILES: O=C([O-])CN1CC(Cc2ccccc2)N(CC(=O)[O-])CC(Cc2ccccc2)N(CC(=O)[O-])CC(Cc2ccccc2)N(CC(=O)[O-])CC1Cc1ccccc1.[Eu+3] (stereo not shown) [[EuL4]^−]

SMILES: CC(C)(C)OC(=O)NCCCC[C@H]1CN(Cc2ccccc2)[C@@H](CCCCNC(=O)OC(C)(C)C)CN(Cc2ccccc2)[C@@H](CCCCNC(=O)OC(C)(C)C)CN(Cc2ccccc2)[C@@H](CCCCNC(=O)OC(C)(C)C)CN1Cc1ccccc1
- ring closure, isolated yield ([2]; from CC(C)(C)OC(=O)NCCCCC1C[N@@]1Cc1ccccc1, TsOH.H2O, MeCN, 82.1 mM, 25.0 °C): 24.5%

SMILES: CC[C@H]1CN(CC(=O)[O-])[C@@H](CC)CN(CC(=O)[O-])[C@@H](CC)CN(CC(=O)[O-])[C@@H](CC)CN1CC(=O)[O-].[Gd+3] (single isomer, unassigned) [[GdL2A]^−]
- r1 4.5 w/v BSA (1.5 T) [1]: 3.9
- r1 Human Plasma (1.5 T) [1]: 2.9
- r1 Water (1.5 T) [1]: 3.0

SMILES: CC(C)C[C@H]1CN(Cc2ccccc2)[C@@H](CC(C)C)CN(Cc2ccccc2)[C@@H](CC(C)C)CN(Cc2ccccc2)[C@@H](CC(C)C)CN1Cc1ccccc1
- ring closure, isolated yield [2]: 28.3%

- isomer ratio of TSA/SA [3]: 1.27
SMILES: CC[C@H]1CN(CC(=O)[O-])[C@@H](CC)CN(CC(=O)[O-])[C@@H](CC)CN(CC(=O)[O-])[C@@H](CC)CN1CC(=O)[O-].[Eu+3] [[EuL2]^−]

- isomer ratio of TSA/SA [3]: 0.93
SMILES: CC[C@H]1CN(CC(=O)[O-])[C@@H](CC)CN(CC(=O)[O-])[C@@H](CC)CN(CC(=O)[O-])[C@@H](CC)CN1CC(=O)[O-].[Yb+3] [[YbL2]^−]

- isomer ratio of TSA/SA [3]: 0.28
SMILES: C[C@H]1CN(CC(=O)[O-])[C@@H](C)CN(CC(=O)[O-])[C@@H](C)CN(CC(=O)[O-])[C@@H](C)CN1CC(=O)[O-].[Yb+3] [[YbL1]^−]

- glum ΔJ = 1 (λ) DMSO ([5]; DMSO): −0.11 (591)
- glum ΔJ = 3 (λ) DMSO ([5]; DMSO): −0.10 (653)
- glum ΔJ = 1 (λ) H2O ([5]; H2O): −0.04 (591)
- glum ΔJ = 3 (λ) H2O ([5]; H2O): −0.11 (653)
- R, I(5D0 → 7F2)/I(5D0 → 7F1) ([6]; asymmetry ratio, room temperature, 10 in MeOH, 11 in DMSO): 2.41
- q (Parker's) ([6]; from lifetimes in H2O and D2O, first value of cell): 0.11
- q (Horrocks') ([6]; from lifetimes in H2O and D2O, second value of cell): 0.03
- ΦEuEu (%) ([6]; intrinsic quantum yield, calculated value): 24.9%
- τD2O/MeOD ([6]; luminescence lifetime, 5D0 → 7F2 transition, D2O (MeOD for 10)): 1.77 ms
- τH2O/MeOH ([6]; luminescence lifetime, 5D0 → 7F2 transition, H2O (MeOH for 10)): 1.04 ms
- ΦDMSO (%) ([6]; luminescence quantum yield in DMSO): 44.1%
- ΦH2O/MeOH (%) ([6]; luminescence quantum yield relative to quinine sulfate in 0.1M H2SO4, H2O (MeOH for 10, insoluble in H2O)): 10.2%
- ΦHEPES (%) ([6]; luminescence quantum yield, 0.1M HEPES buffer, pH 7.4): 9.8%
- λabs(max) ([6]; room temperature, 10 measured in MeOH, 11 in DMSO): 355
SMILES: COc1cc(OC)c(C#Cc2cc(CN3CCN(C(C)C(=O)[O-])CCN(C(C)C(=O)[O-])CCN(C(C)C(=O)[O-])CC3)nc(P(C)(=O)[O-])c2)c(OC)c1.[Eu+3] (single isomer, unassigned) [Complex 12b]
- ηsens (%) ([6]; sensitization efficiency, calculated according to ref 61): 41.0%

SMILES: c1ccc(C[C@H]2CN(Cc3ccccc3)[C@@H](Cc3ccccc3)CN(Cc3ccccc3)[C@@H](Cc3ccccc3)CN(Cc3ccccc3)[C@@H](Cc3ccccc3)CN2Cc2ccccc2)cc1
- ring closure, isolated yield [2]: 25%

SMILES: CC[C@H]1CN(CC(=O)[O-])[C@@H](CC)CN(CC(=O)[O-])[C@@H](CC)CN(CC(=O)[O-])[C@@H](CC)CN1CC(=O)[O-].[Gd+3] (single isomer, unassigned) [[GdL2B]^−]
- r1 4.5 w/v BSA (1.5 T) [1]: 3.6
- r1 Human Plasma (1.5 T) [1]: 3.5
- r1 Water (1.5 T) [1]: 3.0

- isomer ratio of TSA/SA [3]: 6.52
SMILES: CC(C)C[C@H]1CN(CC(=O)[O-])[C@@H](CC(C)C)CN(CC(=O)[O-])[C@@H](CC(C)C)CN(CC(=O)[O-])[C@@H](CC(C)C)CN1CC(=O)[O-].[Eu+3] [[EuL3]^−]

- isomer ratio of TSA/SA [3]: 0.75
SMILES: C[C@H]1CN(CC(=O)[O-])[C@@H](C)CN(CC(=O)[O-])[C@@H](C)CN(CC(=O)[O-])[C@@H](C)CN1CC(=O)[O-].[Eu+3] [[EuL1]^−]
